O=C(Nc1ccccc1)c1ccccc1O
solubility (mole fraction)
Conditions | 283.15 K | 288.15 K | 293.15 K | 298.15 K | 303.15 K | 308.15 K | 313.15 K | 318.15 K | 323.15 K
in acetonitrile | 0.0129 | 0.0153 | 0.0181 | 0.0217 | 0.0258 | 0.0307 | 0.0359 | 0.0423 | 0.0485
in ethanol | 0.0185 | 0.0207 | 0.0235 | 0.0273 | 0.0322 | 0.0366 | 0.0425 | 0.0487 | 0.0572
in ethyl acetate | 0.0344 | 0.039 | 0.0432 | 0.0486 | 0.0554 | 0.0635 | 0.0709 | 0.0808 | 0.0892
in ethyl formate | 0.0195 | 0.0219 | 0.0248 | 0.0293 | 0.0334 | 0.041 | 0.0488 | 0.0585 | 0.0681
in isopropanol | 0.0169 | 0.0199 | 0.0225 | 0.0265 | 0.0315 | 0.036 | 0.041 | 0.0473 | 0.053
in isopropyl acetate | 0.0281 | 0.031 | 0.0352 | 0.0389 | 0.0439 | 0.0502 | 0.0567 | 0.0638 | 0.0709
